{"source": "patent US20110177156A1", "about": "“Sterol-Modified Amphiphilic Lipids” (priority 2007, published 2011)", "key": {"[1]": {"assay": "Differential scanning calorimetry of SMLs and SML/diacyl lipid mixtures", "format": "physicochemical", "from_the_text": "Specific SMLs were used as the model compounds to study the properties of the SML compounds. Phase behavior is one of the most important properties of lipid bilayers and is associated with various biological functions of cell membranes. Addition of free cholesterol to the phospholipid bilayer will change the phase behavior of the bilayer due to the mixing of free cholesterol with the glycerolipids and sphingolipids as well as the effect the isoprenol tail of free cholesterol exerts on the acyl chain packing in the bilayer. Using differential scanning calorimetry it was shown that the SMLs exert a similar effect as free cholesterol on acyl chain packing in bilayers composed of synthetic lipids. […] The equivalent sterol molar percentage in the mixture of m-SML and diacyl lipid is calculated according to the method of conventional lipid mixture with the following formula: Sterol %=[…])×100, wherein: For example, a pure m-SML has one sterol and one acyl chain, thus the equivalent free sterol percentage is 1/1.5×100=67. […]"}, "[2]": {"assay": "Cholesterol exchange from donor liposomes to POPC acceptor liposomes at 37° C.", "format": "physicochemical", "details": "for exchange of cholesterol out of donor liposomes: PChcPC/DPPC/DPPG (50/40/10), DChcPC/DPPC/DPPG (25/65/10), POPC acceptor", "procedure": "Unilamellar liposomes were prepared by extrusion method. […] Specifically, the three donor liposomes were formulated at the following molar ratios: 1) […] (50/40/10), 2) […] (25/65/10), 3) Chol/DPPC/DPPG (40/50/10). Neutral 1-palmitoyl-2-oleoyl-sn-glycero-3-phosphocholine (POPC) liposome was used as the acceptor. After extrusion, the diameter of the donor liposomes was around 100 nm, and 140 nm for the acceptor liposome. For the exchange experiments, 1 mL donor liposomes (10 mM) and 1 mL acceptor liposomes (100 mM, 10 fold) were warmed at 37° C. first, then mixed and incubated at 37° C. An aliquot (250 μL) of mixture was sampled at given time point and applied to a small (ca. 1 cm in length) anion exchange column (Q-Sepharose XL). The column was pretreated with 0.1 mL 10 mM POPC before the loading of the exchange sample to reduce the nonspecific binding of the neutral liposome. The column was eluted with 1 mL 10 mM NaCl, 10 mM HEPES pH 7.4 buffer. The eluate was lyophilized and analyzed by the cholesterol assay to quantify the amount of cholesterol exchanged."}, "[3]": {"format": "physicochemical", "procedure": "SML16m was designed to have a large surface area than conventional phospholipids by replacing of the hydrophobic lipid chain with an amphiphilic poly(ethylene glycol) chain. […] Unlike conventional amphiphilic molecules, SML16m solution doesn't foam when agitated, but forms a thin membrane along the glass wall above the solution surface. SML16m can effectively solubilize amphotericin B at molar ratios of 1:1 or higher to obtain a concentration of 5 mg/mL. SML16m can also be formulated with other lipids to achieve small liposomes."}, "[4]": {"tested_on": "C26 colon carcinoma", "assay": "Survival of Balb/C mice tumored with C26 colon carcinoma after doxorubicin delivered in liposomes of various compositions", "format": "in vivo", "details": "Dose of Dox 10 mg/kg, s.c. C26 tumors", "procedure": "The effect of these formulations on tumor progression and animal survival were compared against the effect non-encapsulated doxorubicin or Doxil™, a commercial liposome formulation of doxorubicin that is approved by the Food and Drug Administration in the Balb/C mice tumored with C26 colon carcinoma. (FIGS. 8 and 9, Table 3).\nDrug loaded liposomes of defined size were prepared by methods well known in the art and described in, for example, (Liposomes: 2nd edition, Oxford University Press, 2003, V. Torchilin and V. Weissig., Ed.). Lipid films were prepared by drying 10 μmoles of lipid mixtures dissolved in chloroform under a reduced pressure in glass tubes using a rotary evaporator at room temperature, followed by an overnight exposure to a high vacuum. Liposomes were prepared by rehydrating the thin lipid film above the transition temperature of the lipid in a sterile 250 mM ammonium sulfate solution in screw-capped glass tubes, followed by sonication in a bath type sonicator for 10 minutes at 60° C. The liposome preparation was then extruded through 0.1 micron polycarbonate membranes. […] Mean vesicle diameters as measured by dynamic light scattering using the multimodal program ranged between 85-140 nm with a monodisperse particle size distribution (Malvern Instruments, UK). […]\nAll animal experiments were performed in compliance with the NIH guidelines for animal research under a protocol approved by the Committee on Animal Research at the University of California, San Francisco. […] Mice were weighed and tumor sizes were monitored daily during the experimental period. The tumor volume was estimated by measuring three orthogonal diameters (a, b, and c) with calipers; the volume was calculated as (a×b×c)×0.5 cm^3. […] In each experiment the mice were monitored for up to 60 days post-inoculation or until one of the following conditions for euthanasia was met: 1) their body weight dropped below 15% of their initial mass; 2) their tumor was greater than 2.0 cm across in any dimension; 3) they became lethargic or sick and unable to feed; or 4) they were found dead. […]"}, "[5]": {"details": "SML:PC:AmB=2:2:1 (mole) liposomes, stored at 4° C.", "protocol": "First, the chloroform solution of SML/diacyl PC lipids mixture at given ratio were evaporated, and lipid film was placed under high vacuum overnight. Given amount of amphotericin B DMSO solution (20 mg/mL) was then added to the lipid film followed by the addition of pH 7.4 PBS. The mixture was sonicated under argon at 60° C. for 1 hour. The mixture was then dialyzed against pH 7.4 PBS. The yellow solution obtained was sterilized by filtering through 220 nm membrane. Products were stored at 4° C. for future study."}, "[6]": {"assay": "Leakage of calcein from liposomes in 30% fetal bovine serum at 37° C.", "protocol": "The purified calcein (56 mM) was then encapsulated into the liposomes for the leakage assay. Generally, the dry lipid film (10 μmol) of given formulation was hydrated in 1 mL calcein containing buffer at 60° C. under argon for 15 min with intermittent vortex. Then the sample was extruded through a polycarbonate membrane 11 times at 60° C. followed by passing a Sephadex G-50 column with the corresponding isosmotic eluent. The pooled liposome fractions were then analyzed to determine the calcein concentration, and diluted to the linear fluorescence range for leakage studies discussed below.\nCalcein was encapsulated into the liposome by the method described above. Liposomes were extruded through 200 nm membrane and the free calcein was removed by passing the liposomes through the Sephadex G-50 column using HEPES buffer (10 mM HEPES, 140 mM NaCl, pH 7.4) as the isomotic eluent. Conventional liposome formulations containing 40% cholesterol (mole percent) were used as the control in the long term leakage assay. An aliquot of liposome sample (20-50 μL) was diluted by 30% fetal bovine serum to a total volume of 2 mL. Samples were then sealed in the glass tube and incubated at 37° C. Fluorescence intensities of samples were monitored at different time points and the fraction of calcein remaining in the liposome was determined by the similar method of osmotic stress induced leakage. […]"}, "[7]": {"details": "calcein liposomes, 37° C., compared with DMPC liposomes", "protocol": "The fluorescent dye calcein (2.49 g, 4 mmol) was dissolved in Tris-HCl buffer (10 mM, pH 7.5, 6 mL) after the addition of 50% sodium hydroxide (695 μL, 13.2 mmol). This stock solution was then loaded on a Sephadex LH-20 column (2.5 cm×40 cm) and eluted with Tris-HCl buffer (10 mM, pH 7.5). The concentration of pooled fraction of calcein was determined by measuring the absorbance (494 nm) of diluted sample at pH 9. The purified calcein (56 mM) was then encapsulated into the liposomes for the leakage assay. Generally, the dry lipid film (10 μmol) of given formulation was hydrated in 1 mL calcein containing buffer at 60° C. under argon for 15 min with intermittent vortex. […] The pooled liposome fractions were then analyzed to determine the calcein concentration, and diluted to the linear fluorescence range for leakage studies discussed below.\nLiposomes used for this study were prepared according to the above mentioned method (Example 11) with high concentration content (56 mM calcein, 10 mM Tris, 711 mM NaCl), extruded through 100 nm membrane, and eluted with the isosmotic buffer (50 mM HEPES, 775 mM NaCl). […] Fluorescence signal at 517 nm (ext.: 494 nm) was read after 5 min equilibration by using a Quantech™ fluorometer (Barnstead/Thermolyne, Dubuque, Iowa). […] The fluorescence of the total calcein was measured and used as 100% signal (F100%). […]"}, "[8]": {"tested_on": "C26 colon carcinoma cells", "details": "MTT, concentration as high as 1 mM", "protocol": "The cytotoxicity of the SML lipids was evaluated with the standard MTT (3-(4,5-dimethylthiazolyl-2)-2,5-diphenyltetrazolium bromide) assay method. Briefly, C26 cells were incubated with lipids of various concentrations for a period of time at 37° C. Then the medium was replaced with the MTT working reagents, and the cells were incubated for another two hours. The reagents were then carefully removed. The converted dye was solubilized in acidic isopropanol. The absorbance of the dye was measured at 570 nm with background subtraction at 650 nm."}}, "note": "Like-named read-outs stand apart in the source and are kept apart here."}
{"compound": "CC(C)CCC[C@@H](C)[C@H]1CC[C@H]2[C@@H]3CC=C4C[C@@H](OC(=O)OC[C@H](COP(=O)([O-])OCC[N+](C)(C)C)OC(=O)O[C@H]5CC[C@@]6(C)C(=CC[C@H]7[C@@H]8CC[C@H]([C@H](C)CCCC(C)C)[C@@]8(C)CC[C@@H]76)C5)CC[C@]4(C)[C@H]3CC[C@]12C", "note": "[SML6a, 1,2-Dicholesterylcarbonoyl-sn-glycero-3-phosphocholine]", "values": [{"measurement": "new transition in DSC trace", "setting": "[1]; DChcPC/DPPC mixtures, equivalent free cholesterol 30 mole percent", "value": "around 20 °C"}, {"measurement": "exchange of cholesterol out of donor liposomes", "setting": "[2]", "value": "very little or no detectable exchange of cholesterol"}]}
{"compound": "CC(C)CCC[C@@H](C)[C@H]1CC[C@H]2[C@@H]3CC=C4C[C@@H](O)CC[C@]4(C)[C@H]3CC[C@]12C", "note": "[free cholesterol, cholesterol, reference compound]", "values": [{"measurement": "half time for cholesterol exchange", "setting": "[2]; free cholesterol in a conventional liposome (Chol/DPPC/DPPG 40/50/10)", "value": "~2", "unit": "h"}]}
{"compound": "COCCOCCOCCOCCOCCOCCOCCOCCC(=O)O[C@H](COC(=O)CCC(=O)O[C@H]1CC[C@@]2(C)C(=CC[C@H]3[C@@H]4CC[C@H]([C@H](C)CCCC(C)C)[C@@]4(C)CC[C@@H]32)C1)COP(=O)([O-])OCC[N+](C)(C)C", "note": "[SML16m, 1-cholesterylhemisuccinoyl-2-(2,5,8,11,14,17,20,23-octaoxahexacosan-26-oyl)-sn-glycero-3-phosphocholine]", "values": [{"measurement": "concentration of amphotericin B solubilized", "setting": "[3]", "value": 5000, "unit": "µg/mL"}, {"measurement": "solubility in water", "setting": "[3]", "value": "dissolves in water easily"}]}
{"compound": "COc1cccc2c1C(=O)c1c(O)c3c(c(O)c1C2=O)C[C@@](O)(C(=O)CO)C[C@@H]3O[C@H]1C[C@H](N)[C@H](O)[C@H](C)O1", "note": "[Free Dox, Doxorubicin]", "values": [{"measurement": "# of Animals Surviving at Day 60 (n = 5)", "setting": "[4]", "value": 0}, {"measurement": "Median Survival Day", "setting": "[4]", "value": 26, "unit": "days"}, {"measurement": "# of Animals Surviving at Day 60 (n = 5)", "setting": "[4]; listed as non-encapsulated doxorubicin", "value": "no animals survived to 60 days"}]}
{"compound": "CCCCCCCCCCCCCCCC(=O)OCC(COP(=O)([O-])OCC[N+](C)(C)C)OC(=O)OC1CCC2(C)C(=CCC3C2CCC2(C)C(C(C)CCCC(C)C)CCC32)C1", "note": "(centres unmarked) [SML5b, 1-Palmitoyl-2-cholesterylcarbonoyl-sn-glycero-3-phosphocholine]", "values": [{"measurement": "stability of formulation at 4° C.", "setting": "[5]", "value": "more than one year"}, {"measurement": "exchange of cholesterol out of donor liposomes", "setting": "[2]", "value": "very little or no detectable exchange of cholesterol"}]}
{"compound": "1-Cholesterylcarbonoyl-2-palmityl-rac-glycero-3-phosphocholine [SML2b]", "values": [{"measurement": "equivalent cholesterol at which the phase transition is eliminated completely", "setting": "[1]; SML mixed with diacyl lipid of the same chain length (C-16)", "value": 30, "unit": "%"}]}
{"compound": "CCCCCCCCCCCCCCCCCC(=O)OCC(COP(=O)([O-])OCC[N+](C)(C)C)OC(=O)OC1CCC2(C)C(=CCC3C2CCC2(C)C(C(C)CCCC(C)C)CCC32)C1", "note": "(centres unmarked) [SML5a, 1-Stearoyl-2-cholesterylcarbonoyl-sn-glycero-3-phosphocholine]", "values": [{"measurement": "stability of formulation at 4° C.", "setting": "[5]", "value": "more than one year"}]}
{"compound": "CCCCCCCCCCCCCCCCOCC(COP(=O)([O-])OCC[N+](C)(C)C)OC(=O)OC1CCC2(C)C(=CCC3C2CCC2(C)C(C(C)CCCC(C)C)CCC32)C1", "note": "(racemic) [SML4b, 1-Palmityl-2-cholesterylcarbonoyl-rac-glycero-3-phosphocholine]", "values": [{"measurement": "stability of formulation at 4° C.", "setting": "[5]", "value": "more than one year"}]}
{"compound": "CCCCCCCCCCCCCCNC(=O)O[C@H](COC(=O)O[C@H]1CC[C@@]2(C)C(=CC[C@H]3[C@@H]4CC[C@H]([C@H](C)CCCC(C)C)[C@@]4(C)CC[C@@H]32)C1)COP(=O)([O-])OCC[N+](C)(C)C", "note": "[SML1c, 1-Cholesterylcarbonoyl-2-myristylcarbamoyl-sn-glycero-3-phosphocholine]", "values": [{"measurement": "leakage profile of calcein from liposomes", "setting": "[6]; 37° C., 4 weeks", "value": "remained intact"}, {"measurement": "leakage of calcein in 28 days", "setting": "[6]; 28 days", "value": "less than 1%"}, {"measurement": "osmotic leakage profile / stability under osmotic gradients", "setting": "[7]", "value": "no difference in osmotic induced release"}, {"measurement": "osmotic leakage profile / stability under osmotic gradients", "setting": "[7]; listed as ChcMaPC", "value": "good stability"}]}
{"compound": "CCCCCCCCCCCCCCCCCCNC(=O)OC(COC(=O)OC1CCC2(C)C(=CCC3C2CCC2(C)C(C(C)CCCC(C)C)CCC32)C1)COP(=O)([O-])OCC[N+](C)(C)C", "note": "(centres unmarked) [SML1a, 1-Cholesterylcarbonoyl-2-stearylcarbamoyl-sn-glycero-3-phosphocholine]", "values": [{"measurement": "cytotoxicity", "setting": "[8]", "value": "certain cytotoxicity"}]}
{"compound": "CCCCCCCCCCCCCCCCNC(=O)OC(COC(=O)OC1CCC2(C)C(=CCC3C2CCC2(C)C(C(C)CCCC(C)C)CCC32)C1)COP(=O)([O-])OCC[N+](C)(C)C", "note": "(centres unmarked) [SML1b, 1-Cholesterycarbonoyl-2-palmitylcarbamoyl-sn-glycero-3-phosphocholine]", "values": [{"measurement": "cytotoxicity", "setting": "[8]", "value": "certain cytotoxicity"}]}
{"compound": "CCCCCCCCCCCCCCOCC(COP(=O)([O-])OCC[N+](C)(C)C)OC(=O)OC1CCC2(C)C(=CCC3C2CCC2(C)C(C(C)CCCC(C)C)CCC32)C1", "note": "(racemic) [SML4c, 1-Myristyl-2-cholesterylcarbonoyl-rac-glycero-3-phosphocholine]", "values": [{"measurement": "stability of formulation at 4° C.", "setting": "[5]", "value": "more than one year"}]}
